In ChEMBL document CHEMBL3102744, “Inhibition of tyrosinase activity by polyphenol compounds from Flemingia philippinensis roots” (Bioorg Med Chem, 2014):
pIC50, pKi: −log10 of the molar value. The source made the active and inactive calls. The rule behind the calls is not given here.

Legend:
Tyrosinase [1] = target: T1, Tyrosinase (Agaricus bisporus, UniProt O42713); experiment: Inhibition of mushroom tyrosinase using L-DOPA as substrate preincubated for 10 mins with substrate followed by enzyme addition measured after 15 mins by spectrophotometry
T1 sequence (O42713 whole entry): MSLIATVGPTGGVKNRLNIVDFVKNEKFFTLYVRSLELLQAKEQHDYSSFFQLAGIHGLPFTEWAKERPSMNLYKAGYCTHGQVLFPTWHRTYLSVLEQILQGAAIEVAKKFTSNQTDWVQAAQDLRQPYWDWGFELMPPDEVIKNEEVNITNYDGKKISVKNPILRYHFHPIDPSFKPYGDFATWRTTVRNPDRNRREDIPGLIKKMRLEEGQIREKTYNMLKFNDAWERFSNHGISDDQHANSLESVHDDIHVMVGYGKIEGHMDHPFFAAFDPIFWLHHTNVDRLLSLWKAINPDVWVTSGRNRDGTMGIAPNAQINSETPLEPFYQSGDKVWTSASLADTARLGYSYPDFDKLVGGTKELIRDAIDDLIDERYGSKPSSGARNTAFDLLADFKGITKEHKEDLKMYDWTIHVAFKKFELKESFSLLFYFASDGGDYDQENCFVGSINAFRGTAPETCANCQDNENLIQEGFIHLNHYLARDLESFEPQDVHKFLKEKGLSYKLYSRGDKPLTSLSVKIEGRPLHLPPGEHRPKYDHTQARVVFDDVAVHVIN

Tyrosinase [2] = target: T1, Tyrosinase; experiment: Competitive inhibition of mushroom tyrosinase using L-tyrosine as substrate preincubated for 10 mins with substrate followed by enzyme addition measured after 15 mins by Dixon plot analysis
[3] = target: T2, Tyrosinase (Agaricus bisporus) (UniProt O42713); experiment: (§1) Inhibition of mushroom tyrosinase using L-tyrosine as substrate preincubated for 10 mins with substrate followed by enzyme addition measured after 15 mins by spectrophotometry
T2 sequence (whole entry): T1 sequence (O42713 whole entry)

Tyrosinase [4] = target: T1, Tyrosinase; experiment: as §1
Tyrosinase [5] = target: T1, Tyrosinase; experiment: Competitive inhibition of mushroom tyrosinase using L-DOPA as substrate preincubated for 10 mins with substrate followed by enzyme addition measured after 15 mins by Dixon plot analysis
[6] = target: T2, Tyrosinase (Agaricus bisporus); experiment: Ratio of kojic acid IC50 to compound IC50 for mushroom tyrosinase using L-tyrosine as substrate
[7] = target: T2, Tyrosinase (Agaricus bisporus); experiment: Reversible inhibition of mushroom tyrosinase at 0.781 to 3.125 uM
[8] = target: T2, Tyrosinase (Agaricus bisporus); experiment: Inhibition of mushroom tyrosinase using L-tyrosine as substrate at 0.78 uM by spectrophotometry; settings: TDE = time-dependent effect

pIC50 (Tyrosinase [1]) | pKi (Tyrosinase [2]) | inhibition [3] | pIC50 (Tyrosinase [4]) | pKi (Tyrosinase [5]) | Ratio IC50 [6] | inhibition [7] | inhibition [8] | SMILES
4.49 | 5.03 | Dose-dependent effect | 4.74 | 4.88 |  |  |  | COc1ccc(CCC(=O)c2ccc3c(c2O)CC(O)C(C)(C)O3)cc1 (centres undefined)
5.28 | 6.20 | Dose-dependent effect | 5.89 | 5.56 | 10 |  |  | COc1ccc(CCC(=O)c2c(O)c3c(c4c2OC(C(C)(C)O)C4)OC(C)(C)C=C3)cc1 (centres undefined)
4.71 | 6.32 | Dose-dependent effect | 6.00 | 5.09 | 10 | Active | tde | COc1ccc(CCC(=O)c2c(O)c(CC=C(C)C)c3c(c2O)CC(O)C(C)(C)O3)cc1 (centres undefined)

The next lines start with the molecule.

SMILES | pIC50 (Tyrosinase [1]) | pKi (Tyrosinase [2]) | inhibition [3] | pIC50 (Tyrosinase [4]) | pKi (Tyrosinase [5]) | Ratio IC50 [6] | inhibition [7] | inhibition [8]
CC(C)=CCc1c2c(c(O)c3c1O[C@H](c1ccc(O)cc1O)CC3=O)C=CC(C)(C)O2 [FLEMICHIN D] | 5.13 | 6.07 | Dose-dependent effect | 5.75 | 5.42 |  |  | 
COc1ccc([C@@H]2CC(=O)c3c(O)c4c(c(CC=C(C)C)c3O2)OC(C)(C)C=C4)c(O)c1 [KHONKLONGINOL H] | 4.69 | 5.68 | Dose-dependent effect | 5.30 | 5.09 |  |  | 
CC(C)=CCc1c2c(c(O)c3c1O[C@H](c1ccc(O)cc1)CC3=O)C=CC(C)(C)O2 [LUPINIFOLIN] | 4.08 | 5.27 | Dose-dependent effect | 4.95 | 4.44 |  |  | 
